Measured values from patent US4792632A, “Bisacylphosphine oxides, the preparation and use thereof” (ESPE Fabrik Pharmazeutischer Praparate GmbH, priority 1984, dated 1988).
Each block holds one molecule with its values, some of them ahead of it.

What was measured:
[1] = UV/visible extinction at 400 nm; type: physicochemical; conditions: for εmol at 400 nm: Table 1; for Extinction at 400 nm: Table 2
[2] = Uncured soft layer at surface of tooth filling composite; conditions: 20 s exposure; for Soft Layer (amount of uncured material), upper surface: first of two values, upper surface of cylinder; for Soft Layer (amount of uncured material), lower surface: second of two values, lower surface of cylinder
Text: (§1) Tooth filling composites prepared according to Example 3 with the use of the photoinitiators listed in Table 3 are filled into cylinders (3 mm diameter, 3 mm height) in the middle of which the temperature can be measured during the polymerization. After 20 seconds of exposure to light from a commercial dental radiator (Elipar-Visio lamp/Espe) the structures are taken out and the soft layer is removed with toluene. From the weight difference the amount of uncured material in mg/cm^2 at the upper and lower surface of the cylinder is calculated. Moreover, the temperature course in time is followed by the thermosensor and a measuring instrument connected thereto.

[3] = Temperature course during polymerization of tooth filling composite; conditions: 3 mm height, 20 s exposure; for Time for reaching Tmax: cylinder 3 mm diameter; for Tmax: middle of cylinder 3 mm diameter
Text: as §1

[4] = Attained thickness of cured layer of resin solution (curing depth) after storage, dental radiator 20 s; conditions: for Layer Thickness after 1 month / Layer Thickness after 24 hrs: 0.5% by weight photoinitiator in solution I, 20 s exposure; for Layer Thickness after 1 month: stored 1 month in absence of light; for Layer Thickness after 24 hrs: stored 1 day in absence of light; for Thickness Loss: 24 hrs versus 1 month storage
Method: 70 parts by weight of bis-acryloxymethyl-tricyclo-[5.2.1.0.^2,6 ]-decane and
30 parts by weight of 2,2-bis-4-(3-methacryloxy-2-hydroxypropoxy)-phenylpropane (Bis-GMA)
are stirred while carefully heated until a clear solution I is formed.
The solution I is cooled to room temperature and 0.5% by weight of a photoinitiator (selected from those listed in Table 2) are added with stirring until the solution is clear.
The resulting solution is introduced into a cylinder (5 mm diameter, 8 mm length; for greater thicknesses 20 mm). Thereafter the solution is exposed to radiation from a commercial dental radiator (Elipar-Visio/Espe) for 20 seconds, the polymer is removed from the cylinder, the soft or gel-like, incompletely polymerized components are removed with a plastic spatula, and the attained thickness of the layer is measured. To this end the solutions are stored prior to polymerization for 1 day and 1 month, respectively, in the absence of light.

εmol at 400 nm [1]: 580 | Extinction at 400 nm [1]: 580
Compound: Cc1ccc(C)c(P(=O)(C(=O)c2c(Cl)cccc2Cl)C(=O)c2c(Cl)cccc2Cl)c1 [Bis-(2,6-dichlorobenzoyl)-2,5-dimethylphenylphosphine Oxide]
Soft Layer (amount of uncured material), upper surface [2]: 1.0 mg/cm^2 | Soft Layer (amount of uncured material), lower surface [2]: 1.1 mg/cm^2 | Time for reaching Tmax [3]: 16 s | Tmax [3]: 43.7 °C | Layer Thickness after 1 month [4]: 14.5 mm | Layer Thickness after 24 hrs [4]: 15 mm | Thickness Loss [4]: 3%

εmol at 400 nm [1]: 1040
Compound: Cc1ccc2ccccc2c1C(=O)P(=O)(C(=O)c1c(C)ccc2ccccc12)c1ccccc1 [bis-(2-methyl-1-naphthoyl)phenylphosphine oxide]

Compound: Cc1cc(C)c(C(=O)P(=O)(c2ccccc2)c2ccccc2)c(C)c1 [2,4,6-Trimethylbenzoyldiphenylphosphine oxide, reference compound]
Soft Layer (amount of uncured material), upper surface [2]: 1.8 mg/cm^2 | Soft Layer (amount of uncured material), lower surface [2]: 2.0 mg/cm^2 | Time for reaching Tmax [3]: 18 s | Tmax [3]: 39.8 °C

εmol at 400 nm [1]: 800
Compound: O=C(c1c(Cl)cccc1Cl)P(=O)(C(=O)c1c(Cl)cccc1Cl)c1ccc(-c2ccccc2)cc1 [bis-(2,6-dichlorobenzoyl)-4-biphenylylphosphine oxide]

εmol at 400 nm [1]: 550
Compound: COc1cccc(OC)c1C(=O)P(=O)(C(=O)c1c(OC)cccc1OC)c1ccccc1 [bis-(2,6-dimethoxybenzoyl)phenylphosphine oxide]

εmol at 400 nm [1]: 505
Compound: COc1cccc(OC)c1C(=O)P(=O)(C(=O)c1c(OC)cccc1OC)c1cc(C)ccc1C [bis-(2,6-dimethoxybenzoyl)-2,5-dimethylphenylphosphine oxide]

εmol at 400 nm [1]: 620
Compound: CCCCCCCCc1ccc(P(=O)(C(=O)c2c(Cl)cccc2Cl)C(=O)c2c(Cl)cccc2Cl)cc1 [bis-(2,6-dichlorobenzoyl)-4-octylphenylphosphine oxide]

εmol at 400 nm [1]: 640
Compound: COc1c(Cl)c(C(=O)P(=O)(C(=O)c2c(Cl)c(OC)c(OC)c(OC)c2Cl)c2cc(C)ccc2C)c(Cl)c(OC)c1OC [bis-(2,6-dichloro-3,4,5-trimethoxybenzoyl)-2,5-dimethylphenylphosphine oxide]

εmol at 400 nm [1]: 2550
Compound: COc1ccc2ccccc2c1C(=O)P(=O)(C(=O)c1c(OC)ccc2ccccc12)c1cc(C)ccc1C [Bis-(2-methoxy-1-naphthoyl-2,5-dimethylphenylphosphineoxide]

Extinction at 400 nm [1]: 190
Compound: O=C(c1c(Cl)cccc1Cl)P(=O)(c1ccccc1)c1ccccc1 [2,6-Dichlorobenzoyl-diphenylphosphine oxide, reference compound]
Layer Thickness after 1 month [4]: 6.5 mm | Layer Thickness after 24 hrs [4]: 7 mm | Thickness Loss [4]: 7%

Extinction at 400 nm [1]: 440
Compound: Cc1ccc(C)c(P(=O)(C(=O)c2c(Cl)cccc2Cl)c2cc(C)ccc2C)c1 [2,6-Dichlorobenzoyl-bis-(2,5-dimethylphenyl)phosphine oxide, reference compound]
Layer Thickness after 1 month [4]: 4.1 mm | Layer Thickness after 24 hrs [4]: 5.1 mm | Thickness Loss [4]: 20%

εmol at 400 nm [1]: 2700
Compound: CCOc1ccc(P(=O)(C(=O)c2c(OC)ccc3ccccc23)C(=O)c2c(OC)ccc3ccccc23)cc1 [bis-(2-methoxy-1-naphthoyl)-4-ethoxyphenylphosphine oxide]

εmol at 400 nm [1]: 690
Compound: CCOc1ccc(P(=O)(C(=O)c2c(Cl)cccc2Cl)C(=O)c2c(Cl)cccc2Cl)cc1 [bis-(2,6-dichlorobenzoyl)-4-ethoxyphenylphosphine oxide]

εmol at 400 nm [1]: 607 | Extinction at 400 nm [1]: 607
Compound: O=C(c1c(Cl)cccc1Cl)P(=O)(C(=O)c1c(Cl)cccc1Cl)c1ccccc1 [bis-(2,6-dichlorobenzoyl)phenylphosphine oxide]
Layer Thickness after 1 month [4]: 14.5 mm | Layer Thickness after 24 hrs [4]: 15 mm | Thickness Loss [4]: 3%

εmol at 400 nm [1]: 1680
Compound: Cc1ccc2ccccc2c1C(=O)P(=O)(C(=O)c1c(C)ccc2ccccc12)c1ccc(-c2ccccc2)cc1 [bis-(2-methyl-1-naphthoyl)-4-biphenylylphosphine oxide]

εmol at 400 nm [1]: 470
Compound: CCCCCCCCCCP(=O)(C(=O)c1c(Cl)cccc1Cl)C(=O)c1c(Cl)cccc1Cl [bis-(2,6-dichlorobenzoyl)decylphosphine oxide]
